Tests used:
[1] = clinical data, BRAF V600E mutation-positive advanced melanoma; cited from earlier work
[2] = system: pEGFR(Tyr1068), pPRAS40(Thr 246) in HT29 cells; assay: Western blot of total and phosphorylated EGFR and PRAS40 in HT29 cells with EGF, 2 hours (FIG. 4); assay type: cell-based; settings: cetuximab 1/75, encorafenib 0.05 μM
Description: C in the first lane stands for control, non-treated cell line sample. The second lane is the same control cell receiving EGF.
C in the first lane stands for control, non-treated cell line sample. Second lane is same control cell receiving EGF.

HT29 cells = assay: Emergence of resistance to encorafenib in HT29 cells (FIGS. 5-8); assay type: cell-based
Protocol: FIGS. 5A-B are graphs that show the emergence of resistance to Encorafenib in the HT29 cell line across an incubation time of 3 weeks and measured by the percentage of cell viability. Cells were treated with 5 μM Encorafenib (FIG. 5A) or 10 μM Encorafenib (FIG. 5B) and incubated with EGF at 0.0 ng/mL, 0.1 ng/mL, Ing/mL, and 10 ng/mL.
FIGS. 6A-B are graphs that show the emergence of resistance to Encorafenib in the HT29 cell line across an incubation time of 15 weeks and measured by the percentage of cell viability.
FIGS. 7A-B are graphs that show the emergence of resistance to Encorafenib in the HT29 cell line across an incubation time of 15 weeks and measured by the percentage of cell viability. […] All tests were conducted at 1.0 ng/ml EGF
FIGS. 8A-B are graphs that show the emergence of resistance to 10 μM Encorafenib in the HT29 cell line with an incubation time of 90 days and measured by the percentage of tumor cell-free wells.
The effect of cells incubated with 5 μM encorafenib and treated with different concentrations of EGF were tested for cell viability during 3 weeks of incubation.
Next, the effects on cells incubated with 0.1 ng/mL EGF were tested.
The effects on cells incubated with 1.0 ng/mL EGF were tested over 15 weeks. The same conditions were repeated as in FIGS. 6A-B with the only difference being the 10-fold increase in EGF (FIG. 7A).
Lastly, the effects of HT29 cells incubated with 0.1 ng/ml and 1.0 ng/mLEGF were tested over a course of 90 days (FIGS. 8A-B).

[3] = system: EGFR-mut NSCLC cell lines; settings: cited from earlier work
[4] = 10 μM versus 5 μM encorafenib, EGF 0.0-10 ng/mL, 3 weeks

In the case of `CC(C)(C)c1nc(-c2cccc(NS(=O)(=O)c3c(F)cccc3F)c2F)c(-c2ccnc(N)n2)s1` [dabrafenib, Dabrafenib], the “time to occurrence of resistance” value [1] is listed as “within six to seven months”.
With `COC(=O)N[C@@H](C)CNc1nccc(-c2cn(C(C)C)nc2-c2cc(Cl)cc(NS(C)(=O)=O)c2F)n1` [Encorafenib] the “inhibition of pPRASO” value [2] was “did not inhibit”, the “growth of positive cells (emergence of resistance)” value (HT29 cells; 0.1 ng/mL EGF, encorafenib 10 μM, 15 weeks) was “allows the growth of positive cells to a much greater extent” and the “positive growth (emergence of resistance)” value (HT29 cells; 1.0 ng/mL EGF, 15 weeks) was “resistance”. The “proliferation / percentage of viable cells (positive wells)” value (HT29 cells; [4]) was “substantially lower”, the “time point at which resistance began” value (HT29 cells; [4]) was “earlier time point” and the “proliferation / percentage of viable cells (positive wells)” value (HT29 cells; 10 μM versus 5 μM encorafenib, EGF 0.0-10 ng/mL, 3 weeks, listed as encorafenib) was “lower proliferation of cells than with 5 μM encorafenib, but not by much”.
For `C=CC(=O)Nc1cc(Nc2nccc(-c3cn(C)c4ccccc34)n2)c(OC)cc1N(C)CCN(C)C` [osimertinib], the “antiproliferative effects of the TKI when EGF is present” value [3] is given as “significantly reduced”.

Reference: US20260115267A1, “METHODS OF USING ANTI-EGF ANTIBODIES TO AUGMENT THE ACTIVITY OF BRAF AND KRAS INHIBITORS” (In3Bio Ltd., priority 2021, published 2026)
